The source of these data is PubChem BioAssay AID1259407 (Chemical Carcinogenesis Research Information System (CCRIS), 2018).

Calls of active or inactive are those of the source. The rule behind the calls is not given here.

The test system of the data set is CCRIS mutagenicity, Ames/micronucleus/aberration tests. Description: CCRIS mutagenicity studies.
The mark [1] stands for this setting: Test System: AMES SALMONELLA TYPHIMURIUM, Strain/Indicator: TA100, Metabolic Activation: NONE, Method: PREINCUBATION
[2] abbreviates: Test System: AMES SALMONELLA TYPHIMURIUM, Strain/Indicator: TA98, Metabolic Activation: NONE, Method: STANDARD PLATE.
[3] abbreviates: Test System: AMES SALMONELLA TYPHIMURIUM, Strain/Indicator: TA100, Metabolic Activation: NONE, Method: STANDARD PLATE.

As to `ClCCOCCCl`, the mutagenic call was “inactive; negative” (End Point: IN VITRO CHROMOSOMAL ABERRATIONS, Test System: CHO CELLS, Metabolic Activation: NONE); “inactive; negative” (End Point: IN VITRO CHROMOSOMAL ABERRATIONS, Test System: CHO CELLS, Metabolic Activation: RAT, LIVER, S-9, AROCLOR 1254); “inactive; negative” (Test System: AMES SALMONELLA TYPHIMURIUM, Strain/Indicator: TA98, Metabolic Activation: HAMSTER, LIVER, S-9, PHENOBARBITAL AND BETA-NAPHTHOFLAVONE, Method: PREINCUBATION); “inactive; negative” (Test System: AMES SALMONELLA TYPHIMURIUM, Strain/Indicator: TA98, Metabolic Activation: NONE, Method: PREINCUBATION); “inactive; negative” (Test System: AMES SALMONELLA TYPHIMURIUM, Strain/Indicator: TA98, Metabolic Activation: RAT, LIVER, S-9, PHENOBARBITAL AND BETA-NAPHTHOFLAVONE, Method: PREINCUBATION); “inactive; negative” (Test System: AMES SALMONELLA TYPHIMURIUM, Strain/Indicator: TA100, Metabolic Activation: HAMSTER, LIVER, S-9, PHENOBARBITAL AND BETA-NAPHTHOFLAVONE, Method: PREINCUBATION). Further, the mutagenic call was “active; positive” (Test System: AMES SALMONELLA TYPHIMURIUM, Strain/Indicator: TA100, Metabolic Activation: NONE, Method: DESICCATOR); “inactive; negative” under setting [1]; “inactive; negative” (Test System: AMES SALMONELLA TYPHIMURIUM, Strain/Indicator: TA100, Metabolic Activation: RAT, LIVER, S-9, PHENOBARBITAL AND BETA-NAPHTHOFLAVONE, Method: PREINCUBATION); “active; positive” (Test System: AMES SALMONELLA TYPHIMURIUM, Strain/Indicator: TA1535, Metabolic Activation: NONE, Method: PREINCUBATION); “inactive; negative” (Test System: AMES SALMONELLA TYPHIMURIUM, Strain/Indicator: TA1537, Metabolic Activation: HAMSTER, LIVER, S-9, PHENOBARBITAL AND BETA-NAPHTHOFLAVONE, Method: PREINCUBATION); “inactive; negative” (Test System: AMES SALMONELLA TYPHIMURIUM, Strain/Indicator: TA1537, Metabolic Activation: NONE, Method: PREINCUBATION). The mutagenic call (Test System: AMES SALMONELLA TYPHIMURIUM, Strain/Indicator: TA1537, Metabolic Activation: RAT, LIVER, S-9, PHENOBARBITAL AND BETA-NAPHTHOFLAVONE, Method: PREINCUBATION) was “inactive; negative”; the mutagenic call (Test System: E. COLI, Strain/Indicator: WP2UVRA, Metabolic Activation: NONE, Method: PREINCUBATION) is “inactive; negative”; the mutagenic call (Test System: E. COLI, Strain/Indicator: WP2UVRA, Metabolic Activation: RAT, LIVER, S-9, PHENOBARBITAL AND BETA-NAPHTHOFLAVONE, Method: PREINCUBATION) is “inactive; negative”.
Regarding `CCCCCC[C@@H](O)[C@@H]1C2=C(C[C@H]([C@H](O)[C@@H]3CC=CC(=O)O3)CC3=C(C(=O)OC3=O)[C@@H]1O)C(=O)OC2=O`, the mutagenic call by setting is: under setting [1], “inactive; negative”; (Test System: AMES SALMONELLA TYPHIMURIUM, Strain/Indicator: TA100, Metabolic Activation: RAT, LIVER, S-9, PHENOBARBITAL, Method: PREINCUBATION) “inactive; negative”.
As to `Cc1ccc(C2CO2)cc1` (stereo not given), the mutagenic call (Test System: E. COLI, Strain/Indicator: WP2 UVRA, Metabolic Activation: NONE, Method: STANDARD PLATE) was “active; positive”.
In the case of `O=C([O-])c1cccnc1Nc1cccc(C(F)(F)F)c1.O=C([O-])c1cccnc1Nc1cccc(C(F)(F)F)c1.OCc1cccnc1.OCc1cccnc1.[Cu+2]`, the mutagenic call by setting is: (Test System: AMES SALMONELLA TYPHIMURIUM, Strain/Indicator: TA97, Metabolic Activation: MOUSE, LIVER, S-9, Method: STANDARD PLATE) “inactive; negative”; (Test System: AMES SALMONELLA TYPHIMURIUM, Strain/Indicator: TA97, Metabolic Activation: NONE, Method: STANDARD PLATE) “inactive; negative”; (Test System: AMES SALMONELLA TYPHIMURIUM, Strain/Indicator: TA97, Metabolic Activation: RAT LIVER S-9, DELOR 103, Method: STANDARD PLATE) “inactive; negative”; (Test System: AMES SALMONELLA TYPHIMURIUM, Strain/Indicator: TA98, Metabolic Activation: MOUSE, LIVER, S-9, Method: STANDARD PLATE) “inactive; negative”; under setting [2], “inactive; negative”; (Test System: AMES SALMONELLA TYPHIMURIUM, Strain/Indicator: TA98, Metabolic Activation: RAT LIVER S-9, DELOR 103, Method: STANDARD PLATE) “inactive; negative”. For the same compound, the mutagenic call is “inactive; negative” (Test System: AMES SALMONELLA TYPHIMURIUM, Strain/Indicator: TA100, Metabolic Activation: MOUSE, LIVER, S-9, Method: STANDARD PLATE); “inactive; negative” under setting [3]; “inactive; negative” (Test System: AMES SALMONELLA TYPHIMURIUM, Strain/Indicator: TA100, Metabolic Activation: RAT LIVER S-9, DELOR 103, Method: STANDARD PLATE); “inactive; negative” (Test System: AMES SALMONELLA TYPHIMURIUM, Strain/Indicator: TA102, Metabolic Activation: MOUSE, LIVER, S-9, Method: STANDARD PLATE); “inactive; negative” (Test System: AMES SALMONELLA TYPHIMURIUM, Strain/Indicator: TA102, Metabolic Activation: NONE, Method: STANDARD PLATE); “inactive; negative” (Test System: AMES SALMONELLA TYPHIMURIUM, Strain/Indicator: TA102, Metabolic Activation: RAT LIVER S-9, DELOR 103, Method: STANDARD PLATE).
For the compound `C[Si]1(C)O[Si](C)(C)O[Si](C)(C)O[Si](C)(C)O[Si](C)(C)O1`, the mutagenic call is, setting by setting: under setting [2], “inactive; negative”; (Test System: AMES SALMONELLA TYPHIMURIUM, Strain/Indicator: TA98, Metabolic Activation: RAT LIVER S-9, AROCLOR 1254, Method: STANDARD PLATE) “inactive; negative”; under setting [3], “inactive; negative”; (Test System: AMES SALMONELLA TYPHIMURIUM, Strain/Indicator: TA100, Metabolic Activation: RAT LIVER S-9, AROCLOR 1254, Method: STANDARD PLATE) “inactive; negative”; (Test System: AMES SALMONELLA TYPHIMURIUM, Strain/Indicator: TA1535, Metabolic Activation: NONE, Method: STANDARD PLATE) “inactive; negative”; (Test System: AMES SALMONELLA TYPHIMURIUM, Strain/Indicator: TA1535, Metabolic Activation: RAT LIVER S-9, AROCLOR 1254, Method: STANDARD PLATE) “inactive; negative”. In addition, the mutagenic call (Test System: AMES SALMONELLA TYPHIMURIUM, Strain/Indicator: TA1537, Metabolic Activation: NONE, Method: STANDARD PLATE) is “inactive; negative”; the mutagenic call (Test System: AMES SALMONELLA TYPHIMURIUM, Strain/Indicator: TA1537, Metabolic Activation: RAT LIVER S-9, AROCLOR 1254, Method: STANDARD PLATE) was “inactive; negative”; the mutagenic call (Test System: AMES SALMONELLA TYPHIMURIUM, Strain/Indicator: TA1538, Metabolic Activation: NONE, Method: STANDARD PLATE) was “inactive; negative”; the mutagenic call (Test System: AMES SALMONELLA TYPHIMURIUM, Strain/Indicator: TA1538, Metabolic Activation: RAT LIVER S-9, AROCLOR 1254, Method: STANDARD PLATE) was “inactive; negative”; the mutagenic call (Test System: E. COLI, Strain/Indicator: P3078 POLA, Metabolic Activation: NONE, Method: SPOT TEST) is “inactive; negative”; the mutagenic call (Test System: E. COLI, Strain/Indicator: P3078 POLA, Metabolic Activation: RAT LIVER S-9, AROCLOR 1254, Method: SPOT TEST) was “inactive; negative”. For the same compound, the mutagenic call runs as follows: (Test System: E. COLI, Strain/Indicator: W3110, Metabolic Activation: NONE, Method: SPOT TEST) “inactive; negative”; (Test System: E. COLI, Strain/Indicator: W3110, Metabolic Activation: RAT LIVER S-9, AROCLOR 1254, Method: SPOT TEST) “inactive; negative”; (Test System: MOUSE LYMPHOMA, Strain/Indicator: L5178Y (TK+/TK-), Metabolic Activation: NONE, Method: SUSPENSION/PLATE) “inactive; negative”; (Test System: MOUSE LYMPHOMA, Strain/Indicator: L5178Y (TK+/TK-), Metabolic Activation: RAT, LIVER, S-9, Method: SUSPENSION/PLATE) “inactive; negative”.
As to `C=C(C)c1ccc(C)c2ccc(CO)c-2c1`, the mutagenic call under setting [2] was “inactive; negative”; the mutagenic call (Test System: AMES SALMONELLA TYPHIMURIUM, Strain/Indicator: TA98, Metabolic Activation: RAT, LIVER, S-9, AROCLOR 1254, Method: STANDARD PLATE) is “active; positive”; the mutagenic call under setting [3] was “inactive; negative”; the mutagenic call (Test System: AMES SALMONELLA TYPHIMURIUM, Strain/Indicator: TA100, Metabolic Activation: RAT, LIVER, S-9, AROCLOR 1254, Method: STANDARD PLATE) was “active; positive”.
